Measurements taken from the OligoGym collection.
Oligonucleotides are given in HELM: sugar(base)linkage, 5' to 3'; d 2'-deoxyribose, r ribose, m 2'-O-methylribose, p phosphate. ss, as = sense and antisense strand

Target: UBE2K
Assay: reporter assay of Huesken 2005
Details: siRNA
Also: test concentration or dose not given here.

Substance	normalised inhibition (eCFP-eYFP dual reporter)
RNA1{r(C)p.r(C)p.r(G)p.r(G)p.r(U)p.r(U)p.r(U)p.r(A)p.r(U)p.r(C)p.r(A)p.r(C)p.r(U)p.r(A)p.r(A)p.r(A)p.r(A)p.r(U)p.r(A)p.d(T)p.d(T)}|RNA2{r(U)p.r(A)p.r(U)p.r(U)p.r(U)p.r(U)p.r(A)p.r(G)p.r(U)p.r(G)p.r(A)p.r(U)p.r(A)p.r(A)p.r(A)p.r(C)p.r(C)p.r(G)p.r(G)p.d(A)p.d(C)}$$$RNA1{StrandType:ss}|RNA2{StrandType:as}$	89.7%
RNA1{r(A)p.r(G)p.r(A)p.r(C)p.r(A)p.r(C)p.r(A)p.r(C)p.r(C)p.r(A)p.r(U)p.r(A)p.r(U)p.r(G)p.r(A)p.r(A)p.r(G)p.r(G)p.r(A)p.d(T)p.d(T)}|RNA2{r(U)p.r(C)p.r(C)p.r(U)p.r(U)p.r(C)p.r(A)p.r(U)p.r(A)p.r(U)p.r(G)p.r(G)p.r(U)p.r(G)p.r(U)p.r(G)p.r(U)p.r(C)p.r(U)p.d(G)p.d(G)}$$$RNA1{StrandType:ss}|RNA2{StrandType:as}$	81%
RNA1{r(C)p.r(A)p.r(C)p.r(C)p.r(A)p.r(U)p.r(A)p.r(U)p.r(G)p.r(A)p.r(A)p.r(G)p.r(G)p.r(A)p.r(G)p.r(G)p.r(A)p.r(A)p.r(G)p.d(T)p.d(T)}|RNA2{r(C)p.r(U)p.r(U)p.r(C)p.r(C)p.r(U)p.r(C)p.r(C)p.r(U)p.r(U)p.r(C)p.r(A)p.r(U)p.r(A)p.r(U)p.r(G)p.r(G)p.r(U)p.r(G)p.d(T)p.d(G)}$$$RNA1{StrandType:ss}|RNA2{StrandType:as}$	69.5%
RNA1{r(G)p.r(G)p.r(U)p.r(U)p.r(U)p.r(A)p.r(U)p.r(C)p.r(A)p.r(C)p.r(U)p.r(A)p.r(A)p.r(A)p.r(A)p.r(U)p.r(A)p.r(U)p.r(G)p.d(T)p.d(T)}|RNA2{r(C)p.r(A)p.r(U)p.r(A)p.r(U)p.r(U)p.r(U)p.r(U)p.r(A)p.r(G)p.r(U)p.r(G)p.r(A)p.r(U)p.r(A)p.r(A)p.r(A)p.r(C)p.r(C)p.d(G)p.d(G)}$$$RNA1{StrandType:ss}|RNA2{StrandType:as}$	81.2%
RNA1{r(A)p.r(U)p.r(U)p.r(G)p.r(G)p.r(C)p.r(A)p.r(G)p.r(C)p.r(U)p.r(G)p.r(C)p.r(A)p.r(G)p.r(A)p.r(G)p.r(C)p.r(C)p.r(A)p.d(T)p.d(T)}|RNA2{r(U)p.r(G)p.r(G)p.r(C)p.r(U)p.r(C)p.r(U)p.r(G)p.r(C)p.r(A)p.r(G)p.r(C)p.r(U)p.r(G)p.r(C)p.r(C)p.r(A)p.r(A)p.r(U)p.d(A)p.d(G)}$$$RNA1{StrandType:ss}|RNA2{StrandType:as}$	85%
RNA1{r(U)p.r(A)p.r(C)p.r(A)p.r(A)p.r(A)p.r(C)p.r(A)p.r(A)p.r(A)p.r(A)p.r(U)p.r(C)p.r(C)p.r(C)p.r(G)p.r(A)p.r(A)p.r(A)p.d(T)p.d(T)}|RNA2{r(U)p.r(U)p.r(U)p.r(C)p.r(G)p.r(G)p.r(G)p.r(A)p.r(U)p.r(U)p.r(U)p.r(U)p.r(G)p.r(U)p.r(U)p.r(U)p.r(G)p.r(U)p.r(A)p.d(C)p.d(T)}$$$RNA1{StrandType:ss}|RNA2{StrandType:as}$	66.1%
RNA1{r(A)p.r(A)p.r(G)p.r(U)p.r(A)p.r(G)p.r(A)p.r(U)p.r(C)p.r(U)p.r(U)p.r(G)p.r(U)p.r(A)p.r(G)p.r(A)p.r(U)p.r(G)p.r(A)p.d(T)p.d(T)}|RNA2{r(U)p.r(C)p.r(A)p.r(U)p.r(C)p.r(U)p.r(A)p.r(C)p.r(A)p.r(A)p.r(G)p.r(A)p.r(U)p.r(C)p.r(U)p.r(A)p.r(C)p.r(U)p.r(U)p.d(T)p.d(A)}$$$RNA1{StrandType:ss}|RNA2{StrandType:as}$	88.9%
RNA1{r(A)p.r(U)p.r(G)p.r(U)p.r(U)p.r(C)p.r(A)p.r(A)p.r(A)p.r(C)p.r(A)p.r(G)p.r(A)p.r(C)p.r(A)p.r(G)p.r(C)p.r(U)p.r(C)p.d(T)p.d(T)}|RNA2{r(G)p.r(A)p.r(G)p.r(C)p.r(U)p.r(G)p.r(U)p.r(C)p.r(U)p.r(G)p.r(U)p.r(U)p.r(U)p.r(G)p.r(A)p.r(A)p.r(C)p.r(A)p.r(U)p.d(T)p.d(T)}$$$RNA1{StrandType:ss}|RNA2{StrandType:as}$	64.6%
RNA1{r(A)p.r(G)p.r(G)p.r(G)p.r(G)p.r(C)p.r(U)p.r(A)p.r(U)p.r(U)p.r(U)p.r(G)p.r(U)p.r(U)p.r(U)p.r(G)p.r(G)p.r(A)p.r(U)p.d(T)p.d(T)}|RNA2{r(A)p.r(U)p.r(C)p.r(C)p.r(A)p.r(A)p.r(A)p.r(C)p.r(A)p.r(A)p.r(A)p.r(U)p.r(A)p.r(G)p.r(C)p.r(C)p.r(C)p.r(C)p.r(U)p.d(G)p.d(T)}$$$RNA1{StrandType:ss}|RNA2{StrandType:as}$	71%
RNA1{r(C)p.r(A)p.r(G)p.r(G)p.r(A)p.r(U)p.r(G)p.r(C)p.r(U)p.r(G)p.r(U)p.r(A)p.r(G)p.r(U)p.r(A)p.r(G)p.r(C)p.r(A)p.r(A)p.d(T)p.d(T)}|RNA2{r(U)p.r(U)p.r(G)p.r(C)p.r(U)p.r(A)p.r(C)p.r(U)p.r(A)p.r(C)p.r(A)p.r(G)p.r(C)p.r(A)p.r(U)p.r(C)p.r(C)p.r(U)p.r(G)p.d(T)p.d(G)}$$$RNA1{StrandType:ss}|RNA2{StrandType:as}$	93%
RNA1{r(C)p.r(A)p.r(G)p.r(U)p.r(A)p.r(C)p.r(A)p.r(A)p.r(A)p.r(C)p.r(A)p.r(A)p.r(A)p.r(A)p.r(U)p.r(C)p.r(C)p.r(C)p.r(G)p.d(T)p.d(T)}|RNA2{r(C)p.r(G)p.r(G)p.r(G)p.r(A)p.r(U)p.r(U)p.r(U)p.r(U)p.r(G)p.r(U)p.r(U)p.r(U)p.r(G)p.r(U)p.r(A)p.r(C)p.r(U)p.r(G)p.d(A)p.d(T)}$$$RNA1{StrandType:ss}|RNA2{StrandType:as}$	70.1%
RNA1{r(G)p.r(A)p.r(G)p.r(G)p.r(A)p.r(A)p.r(G)p.r(A)p.r(U)p.r(A)p.r(C)p.r(C)p.r(A)p.r(A)p.r(C)p.r(U)p.r(A)p.r(G)p.r(A)p.d(T)p.d(T)}|RNA2{r(U)p.r(C)p.r(U)p.r(A)p.r(G)p.r(U)p.r(U)p.r(G)p.r(G)p.r(U)p.r(A)p.r(U)p.r(C)p.r(U)p.r(U)p.r(C)p.r(C)p.r(U)p.r(C)p.d(C)p.d(T)}$$$RNA1{StrandType:ss}|RNA2{StrandType:as}$	79.3%
RNA1{r(A)p.r(U)p.r(A)p.r(C)p.r(C)p.r(A)p.r(G)p.r(A)p.r(A)p.r(A)p.r(C)p.r(A)p.r(U)p.r(A)p.r(C)p.r(C)p.r(C)p.r(A)p.r(U)p.d(T)p.d(T)}|RNA2{r(A)p.r(U)p.r(G)p.r(G)p.r(G)p.r(U)p.r(A)p.r(U)p.r(G)p.r(U)p.r(U)p.r(U)p.r(C)p.r(U)p.r(G)p.r(G)p.r(U)p.r(A)p.r(U)p.d(T)p.d(T)}$$$RNA1{StrandType:ss}|RNA2{StrandType:as}$	76.3%
RNA1{r(A)p.r(G)p.r(A)p.r(U)p.r(G)p.r(A)p.r(U)p.r(C)p.r(C)p.r(A)p.r(C)p.r(A)p.r(G)p.r(G)p.r(A)p.r(U)p.r(G)p.r(C)p.r(U)p.d(T)p.d(T)}|RNA2{r(A)p.r(G)p.r(C)p.r(A)p.r(U)p.r(C)p.r(C)p.r(U)p.r(G)p.r(U)p.r(G)p.r(G)p.r(A)p.r(U)p.r(C)p.r(A)p.r(U)p.r(C)p.r(U)p.d(G)p.d(G)}$$$RNA1{StrandType:ss}|RNA2{StrandType:as}$	68%
RNA1{r(U)p.r(G)p.r(U)p.r(A)p.r(G)p.r(A)p.r(U)p.r(G)p.r(A)p.r(G)p.r(A)p.r(A)p.r(U)p.r(U)p.r(U)p.r(U)p.r(A)p.r(C)p.r(A)p.d(T)p.d(T)}|RNA2{r(U)p.r(G)p.r(U)p.r(A)p.r(A)p.r(A)p.r(A)p.r(U)p.r(U)p.r(C)p.r(U)p.r(C)p.r(A)p.r(U)p.r(C)p.r(U)p.r(A)p.r(C)p.r(A)p.d(A)p.d(G)}$$$RNA1{StrandType:ss}|RNA2{StrandType:as}$	89.5%
RNA1{r(A)p.r(G)p.r(U)p.r(A)p.r(G)p.r(A)p.r(U)p.r(C)p.r(U)p.r(U)p.r(G)p.r(U)p.r(A)p.r(G)p.r(A)p.r(U)p.r(G)p.r(A)p.r(G)p.d(T)p.d(T)}|RNA2{r(C)p.r(U)p.r(C)p.r(A)p.r(U)p.r(C)p.r(U)p.r(A)p.r(C)p.r(A)p.r(A)p.r(G)p.r(A)p.r(U)p.r(C)p.r(U)p.r(A)p.r(C)p.r(U)p.d(T)p.d(T)}$$$RNA1{StrandType:ss}|RNA2{StrandType:as}$	88.2%
RNA1{r(C)p.r(C)p.r(A)p.r(G)p.r(A)p.r(A)p.r(A)p.r(C)p.r(A)p.r(U)p.r(A)p.r(C)p.r(C)p.r(C)p.r(A)p.r(U)p.r(U)p.r(U)p.r(A)p.d(T)p.d(T)}|RNA2{r(U)p.r(A)p.r(A)p.r(A)p.r(U)p.r(G)p.r(G)p.r(G)p.r(U)p.r(A)p.r(U)p.r(G)p.r(U)p.r(U)p.r(U)p.r(C)p.r(U)p.r(G)p.r(G)p.d(T)p.d(A)}$$$RNA1{StrandType:ss}|RNA2{StrandType:as}$	72.4%
RNA1{r(A)p.r(A)p.r(A)p.r(U)p.r(C)p.r(C)p.r(C)p.r(G)p.r(A)p.r(A)p.r(A)p.r(U)p.r(G)p.r(U)p.r(U)p.r(C)p.r(A)p.r(A)p.r(A)p.d(T)p.d(T)}|RNA2{r(U)p.r(U)p.r(U)p.r(G)p.r(A)p.r(A)p.r(C)p.r(A)p.r(U)p.r(U)p.r(U)p.r(C)p.r(G)p.r(G)p.r(G)p.r(A)p.r(U)p.r(U)p.r(U)p.d(T)p.d(G)}$$$RNA1{StrandType:ss}|RNA2{StrandType:as}$	73.8%
RNA1{r(U)p.r(A)p.r(G)p.r(U)p.r(A)p.r(G)p.r(C)p.r(A)p.r(A)p.r(A)p.r(U)p.r(C)p.r(A)p.r(G)p.r(U)p.r(A)p.r(C)p.r(A)p.r(A)p.d(T)p.d(T)}|RNA2{r(U)p.r(U)p.r(G)p.r(U)p.r(A)p.r(C)p.r(U)p.r(G)p.r(A)p.r(U)p.r(U)p.r(U)p.r(G)p.r(C)p.r(U)p.r(A)p.r(C)p.r(U)p.r(A)p.d(C)p.d(A)}$$$RNA1{StrandType:ss}|RNA2{StrandType:as}$	87.9%
RNA1{r(U)p.r(G)p.r(G)p.r(C)p.r(A)p.r(U)p.r(C)p.r(C)p.r(U)p.r(A)p.r(A)p.r(U)p.r(A)p.r(U)p.r(U)p.r(A)p.r(G)p.r(U)p.r(U)p.d(T)p.d(T)}|RNA2{r(A)p.r(A)p.r(C)p.r(U)p.r(A)p.r(A)p.r(U)p.r(A)p.r(U)p.r(U)p.r(A)p.r(G)p.r(G)p.r(A)p.r(U)p.r(G)p.r(C)p.r(C)p.r(A)p.d(T)p.d(A)}$$$RNA1{StrandType:ss}|RNA2{StrandType:as}$	61.6%
